Measured values reported in ChEMBL document CHEMBL1139116, “Discovery and SAR of isonicotinamide BACE-1 inhibitors that bind beta-secretase in a N-terminal 10s-loop down conformation” (Bioorg Med Chem Lett, 2007).

Experiment: Partition coefficient, log P of the compound
Type: physicochemical
Settings: octanol/water

## CCCC[C@H](N)[C@H](Cc1ccccc1)NC(=O)c1cc(NCC2CC2C)nc(N(C)S(C)(=O)=O)c1 (mixture of isomers)
  logP: > 2.51

## CC1CC1CNc1cc(C(=O)N[C@@H](Cc2ccccc2)[C@@H](N)CCC(F)(F)F)cc(N(C)S(C)(=O)=O)n1 (mixture of isomers)
  logP: > 3.5
